According to ChEMBL document CHEMBL5465560, “Selectivity Literature for EUbOPEN Chemogenomic Library” (2024):

Key:
Conditions in all cases: at 1 µM
[1] = biological target: Serine/threonine-protein kinase 38-like (Homo sapiens) (UniProt Q9Y2H1); assay: Selectivity interaction (KinomeScan (DiscoverX)) EUB0001068a STK38L
[2] = biological target: T1, Cytoplasmic tyrosine-protein kinase BMX (Homo sapiens) (UniProt P51813); assay: Selectivity interaction (KinomeScan (DiscoverX)) EUB0001068a BMX
T1 sequence (whole entry): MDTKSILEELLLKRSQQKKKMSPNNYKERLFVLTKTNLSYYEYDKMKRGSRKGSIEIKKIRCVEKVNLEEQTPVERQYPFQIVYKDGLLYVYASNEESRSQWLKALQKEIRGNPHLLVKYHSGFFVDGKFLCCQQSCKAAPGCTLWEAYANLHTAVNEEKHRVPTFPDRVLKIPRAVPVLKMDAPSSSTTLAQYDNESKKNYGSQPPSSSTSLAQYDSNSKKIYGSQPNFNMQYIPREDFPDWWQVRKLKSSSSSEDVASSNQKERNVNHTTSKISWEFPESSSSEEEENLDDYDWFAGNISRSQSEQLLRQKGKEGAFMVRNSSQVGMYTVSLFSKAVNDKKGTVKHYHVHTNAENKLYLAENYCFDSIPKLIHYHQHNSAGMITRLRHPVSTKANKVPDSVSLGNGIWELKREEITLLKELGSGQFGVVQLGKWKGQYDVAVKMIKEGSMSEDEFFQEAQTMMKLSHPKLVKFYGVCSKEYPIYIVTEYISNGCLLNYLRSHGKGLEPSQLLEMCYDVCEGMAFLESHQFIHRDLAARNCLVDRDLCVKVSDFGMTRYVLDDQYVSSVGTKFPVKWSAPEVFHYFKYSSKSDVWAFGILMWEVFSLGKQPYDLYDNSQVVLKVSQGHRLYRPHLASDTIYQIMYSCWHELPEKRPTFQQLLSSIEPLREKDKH

[3] = biological target: T2, Serine/threonine-protein kinase Nek1 (Homo sapiens) (UniProt Q96PY6); assay: Selectivity interaction (KinomeScan (DiscoverX)) EUB0001068a NEK1
T2 sequence (whole entry): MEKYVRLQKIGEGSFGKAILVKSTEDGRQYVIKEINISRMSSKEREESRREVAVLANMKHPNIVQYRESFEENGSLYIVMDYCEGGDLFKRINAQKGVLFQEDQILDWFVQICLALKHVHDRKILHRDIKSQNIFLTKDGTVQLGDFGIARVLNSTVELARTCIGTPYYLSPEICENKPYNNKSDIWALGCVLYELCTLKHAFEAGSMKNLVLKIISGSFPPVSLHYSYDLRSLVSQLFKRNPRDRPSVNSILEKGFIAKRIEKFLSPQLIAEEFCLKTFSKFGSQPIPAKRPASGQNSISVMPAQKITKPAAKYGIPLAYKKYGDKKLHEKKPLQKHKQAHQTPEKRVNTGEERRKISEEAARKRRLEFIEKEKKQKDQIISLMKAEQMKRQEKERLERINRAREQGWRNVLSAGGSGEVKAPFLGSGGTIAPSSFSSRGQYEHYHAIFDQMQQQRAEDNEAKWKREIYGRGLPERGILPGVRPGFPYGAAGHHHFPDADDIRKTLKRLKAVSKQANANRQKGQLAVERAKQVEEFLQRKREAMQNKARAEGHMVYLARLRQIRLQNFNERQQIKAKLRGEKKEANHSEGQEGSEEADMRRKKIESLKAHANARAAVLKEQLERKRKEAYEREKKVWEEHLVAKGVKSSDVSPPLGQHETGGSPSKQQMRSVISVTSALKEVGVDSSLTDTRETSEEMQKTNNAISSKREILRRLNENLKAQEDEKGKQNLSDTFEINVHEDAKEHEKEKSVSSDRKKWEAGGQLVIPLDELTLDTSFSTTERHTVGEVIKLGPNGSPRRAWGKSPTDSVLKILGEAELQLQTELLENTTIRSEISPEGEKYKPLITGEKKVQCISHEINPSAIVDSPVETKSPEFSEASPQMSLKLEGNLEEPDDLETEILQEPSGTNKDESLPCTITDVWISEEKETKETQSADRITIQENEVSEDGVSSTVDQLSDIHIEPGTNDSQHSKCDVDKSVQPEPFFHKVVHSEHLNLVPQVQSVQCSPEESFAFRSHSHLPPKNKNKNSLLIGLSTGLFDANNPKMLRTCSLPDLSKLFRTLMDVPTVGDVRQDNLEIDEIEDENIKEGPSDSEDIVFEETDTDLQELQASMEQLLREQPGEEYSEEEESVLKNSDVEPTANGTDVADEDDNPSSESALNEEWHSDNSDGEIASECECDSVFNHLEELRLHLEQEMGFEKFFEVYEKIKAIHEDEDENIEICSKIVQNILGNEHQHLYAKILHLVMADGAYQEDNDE

Chain of Serine/threonine-protein kinase 38-like (Homo sapiens) (Q9Y2H1 2-464 limits assumed): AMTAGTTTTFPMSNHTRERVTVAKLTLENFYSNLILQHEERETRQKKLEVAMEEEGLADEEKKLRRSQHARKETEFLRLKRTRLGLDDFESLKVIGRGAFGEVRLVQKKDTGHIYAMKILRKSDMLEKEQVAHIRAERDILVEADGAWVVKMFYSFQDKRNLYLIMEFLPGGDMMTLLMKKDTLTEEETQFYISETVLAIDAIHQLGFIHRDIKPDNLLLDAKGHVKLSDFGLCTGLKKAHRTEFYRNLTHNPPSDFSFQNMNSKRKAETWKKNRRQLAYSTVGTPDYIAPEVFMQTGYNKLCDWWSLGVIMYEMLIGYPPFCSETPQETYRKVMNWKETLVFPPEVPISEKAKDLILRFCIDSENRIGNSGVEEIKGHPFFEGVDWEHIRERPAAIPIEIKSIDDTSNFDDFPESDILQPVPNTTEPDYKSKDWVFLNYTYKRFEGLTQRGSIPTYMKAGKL

% of control [1]: 47%
% of control [2]: 50%
% of control [3]: 45%
Compound: CN(C(=O)c1ccccc1)c1cc(N(C)c2ccc3c(c2)CCc2ccc(C(=O)NCCN4CCOCC4)cc2C3=O)ccc1F
